Results taken from patent US8101782B2, “Compounds that inhibit cholinesterase” (priority 2007, dated 2012).
pIC50: −log10 of the molar value. Where two headings read alike, the source gives them in different places.

What was measured:
[1] = tested on: male CD IGS (Sprague Dawley derived) rats; assay: Measurement of hypothermia (rectal temperature); format: in vivo; settings: Rattus norvegicus, sc, read-out: Hypothermia MED
Description: The induction of hypothermia was determined for compounds of the invention according to the methods described in Freedman, et al., European Journal of Pharmacology, 187 (1990), 193-199, which is incorporated by reference herein. Dose range and time course for cholinergic effects of the compounds of the invention was also determined. […]
(§1) The dose range and time course for cholinergic effects of the compounds of the invention was determined as described below.
(§2) Subjects: Two hundred eight male CD IGS (Sprague Dawley derived) rats were received at 126-150 grams and maintained four per cage on a regular light/dark cycle (lights on 0600-1800) with ad libitum food and water for about 1 week before commencement of experimentation. Apparatus: Injection was done with a 25-gauge ⅝-inch needle on a 1-mL tuberculin syringe. Observation was done in a 5½-×10-inch polycarbonate rat housing cage. Temperature was taken with a rat rectal probe on a Model BAT-12 electronic thermometer. Compound Preparation: Test compounds were dissolved for example, in 0.9% saline. Concentrations for lower doses were prepared by taking aliquots from higher concentrations and diluting. Injection volumes were 1 mL/kg, if the test compound was sufficiently soluble. If less soluble, maximum injection volume were 5 mL/kg. Route of administration was s.c. As sample protocol is as follows: Treatment Groups included (N=3, with 6 for Saline)
(§3) Procedure: The rats were brought to the test room in the home cage. Baseline temperature were be taken just before injection. After injection s.c., the rat was placed in the observation cage. At 0.5, 1, 2, and 4 hours after injection, it was observed briefly for gross signs; salivation was scored as absent, clearly present, or copious; and rectal temperature was taken. In observation for gross signs, special attention was paid to fasciculation (muscle twitch), tremor/ataxia, and abnormal gait.

AChE = AChE (Homo sapiens, UniProt P22303); assay: In vitro screening assay, AChE inhibition (spectrophotometric quantitation of thiocholine); format: biochemical; settings: 700 μM acetylthiocholine, pH 7.4, 25° C.; for AChEI (%) 1 μM: 1 μM compound; for AChEI (%) 10 μM: 10 μM compound
AChE, sequence (P22303 32-614): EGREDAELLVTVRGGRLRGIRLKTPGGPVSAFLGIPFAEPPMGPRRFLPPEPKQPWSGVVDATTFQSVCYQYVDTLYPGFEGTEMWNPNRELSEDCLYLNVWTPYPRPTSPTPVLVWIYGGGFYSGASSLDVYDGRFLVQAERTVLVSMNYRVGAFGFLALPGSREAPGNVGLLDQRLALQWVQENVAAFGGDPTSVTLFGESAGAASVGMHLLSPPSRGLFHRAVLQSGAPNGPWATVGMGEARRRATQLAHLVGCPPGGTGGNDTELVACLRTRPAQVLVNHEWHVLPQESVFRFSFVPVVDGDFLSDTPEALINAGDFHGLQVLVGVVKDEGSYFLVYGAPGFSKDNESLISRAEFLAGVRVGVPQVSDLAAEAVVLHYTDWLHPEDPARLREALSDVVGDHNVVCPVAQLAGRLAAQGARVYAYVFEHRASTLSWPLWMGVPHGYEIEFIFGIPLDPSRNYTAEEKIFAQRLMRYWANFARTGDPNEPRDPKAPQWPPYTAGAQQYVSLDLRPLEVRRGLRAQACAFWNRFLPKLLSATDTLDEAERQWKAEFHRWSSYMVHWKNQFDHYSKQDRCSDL

[2] = tested on: male CD IGS (Sprague Dawley derived) rats; assay: Determination of the dose range and time course for cholinergic effects (gross signs, salivation); settings: s.c., doses 1, 3, 10, 30 and 100 mg/kg; observed up to 4 hours
Description: The induction of hypothermia was determined for compounds of the invention according to the methods described in Freedman, et al., European Journal of Pharmacology, 187 (1990), 193-199, which is incorporated by reference herein. Dose range and time course for cholinergic effects of the compounds of the invention was also determined.
as §1, §2, §3

BuChE = BuChE (Homo sapiens, UniProt P06276); assay: In vitro screening assay, BuChE inhibition; format: biochemical; settings: for BuChEI (%) 1 μM: 1 μM compound; for BuChEI (%) 10 μM: 10 μM compound
BuChE, sequence (P06276 29-602): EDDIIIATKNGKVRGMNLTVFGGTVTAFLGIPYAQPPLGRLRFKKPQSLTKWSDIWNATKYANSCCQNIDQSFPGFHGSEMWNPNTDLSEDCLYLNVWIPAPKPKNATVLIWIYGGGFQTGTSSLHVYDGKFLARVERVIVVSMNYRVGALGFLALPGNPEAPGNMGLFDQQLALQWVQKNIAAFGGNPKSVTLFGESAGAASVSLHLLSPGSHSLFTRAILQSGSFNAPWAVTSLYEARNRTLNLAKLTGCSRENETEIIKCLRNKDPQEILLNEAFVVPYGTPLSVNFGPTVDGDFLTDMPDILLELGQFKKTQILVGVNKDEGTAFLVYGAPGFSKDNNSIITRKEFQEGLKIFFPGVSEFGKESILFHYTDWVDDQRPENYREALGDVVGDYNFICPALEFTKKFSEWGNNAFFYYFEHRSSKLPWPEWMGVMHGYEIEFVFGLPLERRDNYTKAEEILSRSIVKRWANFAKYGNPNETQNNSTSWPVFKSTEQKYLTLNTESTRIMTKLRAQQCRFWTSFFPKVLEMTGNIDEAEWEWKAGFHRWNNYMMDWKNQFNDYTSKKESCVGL
Description: (§4) An in vitro screening assay with compounds of the invention was completed according to the methods described in Ellman G L et al., Biochem Pharmacol., 7:88-95 (1961) and in Nadarajah B, J. Anal. Toxicol., 16:192-193 (1992), both of which are herein incorporated by reference in their entireties.
as §4, with “entireties. The assay method was completed according to the following: […]” for “entireties.”

[3] = molecular target: T1, human recombinant acetylcholinesterase (Homo sapiens, UniProt P22303); assay: Inhibition of acetylcholinesterase in vitro (modified Ellman colorimetric method, Dixon plot); format: biochemical; settings: human recombinant AChE, 25° C., 30 minutes preincubation, 0.3 mM acetylthiocholine, pH 8
T1 construct: purchased Sigma Chemical Co (St. Louis, Mo.) C1682
T1 sequence (P22303 32-614): as the sequence (P22303 32-614) above

[4] = minimum effective dose for hypothermia, s.c., temperature at 0.5, 1, 2 and 4 hours after injection

Row | Compound | minimal effective dose [1, 4] [mg/kg] | AChEI (%) 10 μM (AChE) [%] | BuChEI (%) 10 μM (BuChE) [%] | pIC50 [3] | further results
1 | CCN(C)C(=O)Oc1cccc([C@H](C)N(C)C)c1 [Compound 1, S-rivastigmine, reference compound] | ≤ 0.1 |  |  |  | 
2 | C[C@@H](c1cccc(OC(=O)N[C@@H]2C[C@H]2c2ccccc2)c1)N(C)C [Compound 2, S-rivastigmine-tranylcypromine] | 10 | 97 | 67 | 6.70 | AChEI (%) 1 μM (AChE): 84%; Max Tolerated Dose [2]: 30; BuChEI (%) 1 μM (BuChE): 23%
3 | C[C@@H](c1cccc(OC(=O)N2CCN(C3=Nc4ccccc4Oc4ccc(Cl)cc43)CC2)c1)N(C)C [Compound 3, S-rivastigmine-amoxapine] | 10 |  |  |  | 
4 | C[C@@H](c1cccc(OC(=O)N(C)CCCN2c3ccccc3CCc3ccccc32)c1)N(C)C [Compound 4, S-rivastigmine-desipramine] | 3 |  |  |  | 
5 | C[C@@H](c1cccc(OC(=O)N(C)CCC=C2c3ccccc3CCc3ccccc32)c1)N(C)C [Compound 5, S-rivastigmine-nortriptyline] | ≤ 1 |  |  |  | Max Tolerated Dose [2]: ≧100
6 | C[C@@H](c1cccc(OC(=O)N(C)CCCC2c3ccccc3C=Cc3ccccc32)c1)N(C)C [Compound 6, S-rivastigmine-protriptyline] | 100 |  |  |  | 
7 | C[C@@H](c1cccc(OC(=O)N(C)CCC(Oc2ccc(C(F)(F)F)cc2)c2ccccc2)c1)N(C)C (stereo partly shown) [Compound 7, S-rivastigmine-fluoxetine] | 3 |  |  |  | 
8 | C[C@@H](c1cccc(OC(=O)N(C)CCc2ccccn2)c1)N(C)C [Compound 11, S-rivastigmine-betahistine] |  | 47 | 100 | 4.88 | minimal effective dose [1]: < 1 mg/kg; Max Tolerated Dose [2]: 30; BuChEI (%) 1 μM (BuChE): 45%
9 | CCOC(=O)C1=C(COCCNC(=O)Oc2cccc([C@H](C)N(C)C)c2)NC(C)=C(C(=O)OC)C1c1ccccc1Cl (stereo partly shown) [Compound 12, S-rivastigmine-amlodipine] |  | 79 | 6 | 5.43 | AChEI (%) 1 μM (AChE): 20%
10 | CC(CC1CCCCC1)N(C)C(=O)Oc1cccc([C@H](C)N(C)C)c1 (stereo partly shown) [Compound 13, S-rivastigmine-propylhexedrine] | 10 | 99 | 100 |  | AChEI (%) 1 μM (AChE): 62%; BuChEI (%) 1 μM (BuChE): 37%
11 | CC(NC(=O)Oc1cccc([C@H](C)N(C)C)c1)C12CC3CC(CC(C3)C1)C2 (stereo partly shown) [Compound 14, S-rivastigmine-rimantadine] |  | 77 | 13 | 5.35 | AChEI (%) 1 μM (AChE): 28%
12 | C[C@@H](c1cccc(OC(=O)N2CCC(=C3c4ccc(Cl)cc4CCc4cccnc43)CC2)c1)N(C)C [Compound 15, S-rivastigmine-desloratidine] |  | 36 | 6 | 4.90 | minimal effective dose [1]: 3 mg/kg; Max Tolerated Dose [2]: ≧100
13 | C[C@@H](c1cccc(OC(=O)NC23CC4CC(CC(C4)C2)C3)c1)N(C)C [Compound 16, S-riva- amantadine] |  |  |  | 4.14 | 
14 | C[C@@H](c1cccc(OC(=O)N[C@@]23CC4C[C@@](C)(C[C@@](C)(C4)C2)C3)c1)N(C)C [Compound 17, S-riva memantine] |  |  |  | 5.24 | 
15 | CC(C)C[C@@H](CNC(=O)Oc1cccc([C@H](C)N(C)C)c1)CC(=O)O [Compound 18, S-riva pregabalin] |  |  |  | 4.60 | 
16 | C[C@@H](c1cccc(OC(=O)NCC(CC(=O)O)c2ccc(Cl)cc2)c1)N(C)C (stereo partly shown) [Compound 19, S-riva baclofen] |  |  |  | 4.77 | 
17 | C[C@@H](c1cccc(OC(=O)N2CCN(c3cc4c(cc3F)c(=O)c(C(=O)O)cn4C3CC3)CC2)c1)N(C)C [Compound 20, S-riva ciprofloxacin] |  |  |  | 4.27 | 
